Details of experiment [1]: method as in ELF screening history. Particulars: ref ELF screening history, cited from earlier work; for Enzyme Active: number of ELF enzyme screens in which the compound was active; for Targets active: number of ELF screens in which the compound was active; for Enzyme Active %: share of ELF enzyme targets screened; for Targets Active %: share of all ELF targets screened.

The target in experiment [2] is T1, IRAP (Homo sapiens, UniProt Q9UIQ6).
T1 construct: The screen was performed with the soluble truncated IRAP enzyme; made in house
Nature of the experiment: Deselection fluorescence IRAP assay with 10 µM zinc. Particulars: 10 µM ZnSO4 in assay buffer; read-out: Fluorescence + Zn pIC50 (converted). The experiment is classed as biochemical. As for the experimental part: To prepare the assay buffer (50 mM Tris-HCl pH 7.4, 150 mM NaCl, 0.1 mM PMSF, 0.05% BSA) of the primary and orthogonal assays, 1 M Tris-HCl was prepared by dissolving 60.57 g Trizma-base (Mw 121.14 g/mol) (Sigma 93362-250G) in 500 mL MQ water, and the pH was adjusted to 7.4 using 4 M HCl. The solution was filtered with a 0.45 μm filter and stored at room temperature (RT). Then, 2 M NaCl stock was prepared by dissolving 29.22 g NaCl (Mw 58.44 g/mol) (Sigma S7653-250G) in 250 mL MQ water. The solution was filtered with a 0.45 μm filter and stored at RT. Next, 100 mM Phenylmethanesulfonylfluoride (PMSF) stock was prepared by dissolving 1 g PMSF (Mw 174.19 g/mol) (Sigma 78830-1G) in 57.4 mL isopropanol (Sigma I9516-500ML) and stored at 4 °C. A 10% Bovine Serum Albumin (BSA) stock solution was prepared by dissolving 2 g BSA (Mw 66.5 kDa) (Sigma A7030-50G), which was dissolved in 20 mL MQ water. The solution was filtered with a 0.45 μm filter, aliquoted, and stored at −20 °C. For the deselection assay buffer (50 mM Tris-HCl pH 7.4, 150 mM NaCl, 0.1 mM PMSF, 0.05% BSA, 10 μM ZnSO4), 1 mM ZnSO4 solution was prepared by dissolving 28.8 mg ZnSO4 (Mw 287.56 g/mol) (Sigma Z0251-100G) in 100 mL MQ water. The solution was filtered with a 0.45 μm filter and stored at RT. For the TSA assay buffer (50 mM Tris HCL, 150 mM NaCl, pH 7.4), stocks of 1 M Tris HCL and 2 M NaCl were prepared as described above.

For experiment [3], the target named is T1, IRAP. Briefly: Primary fluorescence IRAP assay (L-Leucine-7-amido-4-methylcoumarin cleavage). The experiment is classed as biochemical. The settings on record: for IC50: 37.5 µM L-Leucine-7-amido-4-methylcoumarin, 60 min RT, dose-response 20 µM-27.4 nM, read-out: Fluorescence IC50; for LipE: calculated from (pIC50Fluorescence − LogD). The source says:
The primary biochemical assay was developed to measure the enzymatic activity of IRAP.
To ensure biochemically sound, optimal, robust, and affordable assay conditions for large-scale screening, several factors need to be considered. […] For both primary fluorescence and orthogonal absorbance assays, non-binding 1536-well assay plates were used, and 0.05% BSA was included in the assay buffer to minimize the issues associated with protein sticking to plastics. The substrate Km values were determined in two separate experiments using two different batches of IRAP protein. For this, the IRAP progress curve was monitored every 5 min for 2 h using an Envision multimode plate reader (PerkinElmer, Waltham, MA, USA).
First, 10 nL of test compounds (4 mM) or 100% DMSO was dispensed into the 1536-well assay plates using an Echo acoustic liquid handler (Beckman Coulter, Brea, CA, USA). Then, 2 μL of protein working solution (5 × 10^−4 mg/mL) was dispensed to the negative control (min effect) and compound wells (final well concentration 2.5 × 10^−4 mg/mL) using a Certus Flex liquid dispenser (Fritz Gyger AG, Thun, Switzerland) and 2 μL assay buffer to the positive control wells (max effect) using a FLEXdrop (PerkinElmer, Waltham, MA, USA).
Figure S9. Reference compounds in Fluorescence IRAP assay with different end volumes in 1536-well format.
mg/ml) and 2 or 4 µL L -Leucine-7-amido-4-methylcoumarin (f.a.c.
Plates were measured on the Envision every 10 minutes for 140 minutes (data
shown up to 2 hours). %Effect was calculated using no protein as MAX effect (assay buffer was added instead of IRAP).

For experiment [4], the target named is T1, IRAP. Briefly: Orthogonal absorbance IRAP assay (L-Leucine para-nitroanilide cleavage). The settings on record: 1 mM L-Leucine p-Nitroanilide, 120 min RT; read-out: Absorbance pIC50 (converted). The experiment is classed as biochemical. The source says: The primary biochemical assay was developed to measure the enzymatic activity of IRAP. […] To establish an orthogonal assay, an alternative L-Leucine para-nitroanilide substrate was used, which IRAP turns over to L-Leucine and para-nitroaniline and is measurable by absorbance at 405 nm (Supplementary Figure S2B).
To ensure biochemically sound, optimal, robust, and affordable assay conditions for large-scale screening, several factors need to be considered. These include the final concentration of substrates, based on the determined substrate Km value; the assay kinetics and reaction linearity; achieving a minimal, rate limiting protein concentration; identifying optimal buffer additives and concentrations; the choice of assay plate type; the final assay volume per well; the stability of reagents; the magnitude and variance of the signal; and the potency and rank order of reference compounds. For both primary fluorescence and orthogonal absorbance assays, non-binding 1536-well assay plates were used, and 0.05% BSA was included in the assay buffer to minimize the issues associated with protein sticking to plastics. The substrate Km values were determined in two separate experiments using two different batches of IRAP protein. For this, the IRAP progress curve was monitored every 5 min for 2 h using an Envision multimode plate reader (PerkinElmer, Waltham, MA, USA). […] To evaluate if using substrate concentrations close to the determined Km values results in sufficient dynamic range within the linear range of the enzymatic reaction, Z′ and S/B were calculated for multiple time points up to 2.5 h in the presence and absence of reference compounds in both assays. The primary fluorescence assay reached an optimal Z′-value after 1 h when using 37.5 μM substrate (Supplementary Figure S5). For the absorbance, 2 h was required for the enzyme reaction time; however, using ~0.4 mM substrate was associated with increased assay variation and a poor Z′ (Supplementary Figure S6).
The orthogonal assay was performed in a black non-binding 1536-well plate (Corning 3728) and sealed with universal lids (Corning 3098). First, 20 nL of test compounds (4 mM) or 100% DMSO was dispensed into the 1536-well assay plates using an Echo acoustic liquid handler (Beckman Coulter). Then, 4 μL of protein working solution (5 × 10^−4 mg/mL) was dispensed to the negative control (min effect) and compound wells (final well concentration 2.5 × 10^−4 mg/mL) using the Certus Flex liquid dispenser (Fritz Gyger AG) and 4 μL assay buffer to the positive control wells (max effect) using the FLEXdrop (PerkinElmer). Next, 4 μL of 2 mM substrate working solution was dispensed into all wells using the FLEXdrop (final well concentration 1 mM). The assay plates were then centrifuged at 187.5× g for 30 s, incubated in the dark at RT for 120 min, and finally read on an Envision plate reader (PerkinElmer) (absorbance at 405 nm, 10 flashes per second). During the dose–response curve analysis in the orthogonal assay, 80 nL of compound (range 2.00 × 10^−3 M–2.74 × 10^−6 M) or 100% DMSO was dispensed into the assay plates using an Echo acoustic liquid handler (Beckman Coulter) with final well concentration range of 20 μM–27.4 nM compound and 1% DMSO.

Experiment [5] has as its target T1, IRAP. Briefly: Thermal shift (TSA) IRAP assay. The experiment is classed as binding. The settings on record: screening hits at 30 µM, 1% DMSO. The source says: The Thermal shift assay (TSA) is a biophysical technique measuring protein thermal stability. The assay relies on a fluorescent dye that is quenched in an aqueous environment but fluoresces when de-solvated in non-polar environments, such as the hydrophobic pockets of proteins. The target protein is mixed with the dye and heated gradually until it becomes completely denatured; as it unfolds or melts, the dye binds to newly exposed hydrophobic regions of the protein, resulting in a significant increase in fluorescence emission detected by a PCR system. The melting temperature (Tm) is calculated from the protein melt curve, and changes in Tm (known as ΔTm) are correlated with changes in protein stability and ligand binding. […] For the TSA assay, vehicle (DMSO) or compound was dispensed into MicroAmp Endura optical qPCR plates at the desired volume using an Echo acoustic liquid handler. […] The plates were then centrifuged for 10 s at 1000 rpm and sealed with Clear PCR-compatible plate seals.

T1 sequence (Q9UIQ6 155-1025 limits assumed): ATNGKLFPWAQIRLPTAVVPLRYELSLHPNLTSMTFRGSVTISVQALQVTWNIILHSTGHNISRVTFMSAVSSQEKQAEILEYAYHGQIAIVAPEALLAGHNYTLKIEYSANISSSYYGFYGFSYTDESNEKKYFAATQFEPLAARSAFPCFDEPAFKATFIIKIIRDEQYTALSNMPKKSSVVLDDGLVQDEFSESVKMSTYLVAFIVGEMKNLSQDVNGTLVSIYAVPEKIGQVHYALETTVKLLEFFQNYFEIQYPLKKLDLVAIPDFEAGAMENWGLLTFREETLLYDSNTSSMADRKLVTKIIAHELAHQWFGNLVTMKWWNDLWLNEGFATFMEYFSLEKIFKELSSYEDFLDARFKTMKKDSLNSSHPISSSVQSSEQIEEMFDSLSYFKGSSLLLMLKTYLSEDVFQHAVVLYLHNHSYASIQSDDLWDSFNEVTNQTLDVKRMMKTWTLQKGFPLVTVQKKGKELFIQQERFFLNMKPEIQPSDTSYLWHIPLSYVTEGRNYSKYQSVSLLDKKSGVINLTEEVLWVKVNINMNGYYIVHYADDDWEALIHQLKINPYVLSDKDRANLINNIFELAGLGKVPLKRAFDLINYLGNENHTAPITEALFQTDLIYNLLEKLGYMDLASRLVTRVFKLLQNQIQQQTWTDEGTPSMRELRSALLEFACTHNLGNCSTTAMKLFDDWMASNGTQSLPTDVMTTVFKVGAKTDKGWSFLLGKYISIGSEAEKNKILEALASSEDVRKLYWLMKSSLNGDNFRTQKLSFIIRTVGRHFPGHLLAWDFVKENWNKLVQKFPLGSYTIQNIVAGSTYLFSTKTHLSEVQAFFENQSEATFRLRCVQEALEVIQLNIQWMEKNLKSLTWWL

As to `O=c1cc(N2CCCC2)nc2n(Cc3cc(Cl)ccc3Cl)ccn12` [QHL15], in experiment [1], the “Enzyme Active” value is given as 6, the Targets active is 10, the “Enzyme Active %” value is 7.1% and the “Targets Active %” value was 7.1%. In addition, the IC50 at IRAP [2] was 2.57 µM. Further, on IRAP [3], the IC50 turned out to be 2.4 µM and the LipE is recorded as 3.54. For the same compound, the IC50 on IRAP [4] was over 20 µM. The ΔTm (usually the change in melting temperature against a reference sample) at 30 µM at IRAP [5] was -0.89 °C.
For `CC(C)[C@@H](CS(=O)(=O)N(C)CC1CCc2ccccc2C1)C(=O)NO` (stereo partly drawn) [QHL16], in experiment [1], the “Enzyme Active” value is 4, the Targets active was 4, the “Enzyme Active %” value is listed as 5.1% and the “Targets Active %” value is given as 2.8%. Further, the IC50 at IRAP [2] was 2.82 µM. Further, on IRAP [3], the IC50 worked out at 2.63 µM and the LipE is 3.14. Further, the IC50 on IRAP [4] was 3.8 µM. The shift in melting temperature (ΔTm) at 30 µM on IRAP [5] was 2.07 °C.
Take `Cc1cc(NC(=O)Cn2cnc3sc4c(c3c2=O)CCCC4)n(-c2ccccc2)n1` [QHL17]: in experiment [1], the “Enzyme Active” value was 4, the Targets active is 5, the “Enzyme Active %” value was 4.2% and the “Targets Active %” value is given as 3.3%. Also, at IRAP [2], the IC50 was 3.24 µM. Moreover, on IRAP [3], the IC50 came out at 2.63 µM and the LipE was 2.19. At IRAP [4], the IC50 was over 20 µM. Besides, the thermal shift (ΔTm) at 30 µM at IRAP [5] came out at 0.3 °C.
Take `CC(C)c1cc(C(=O)N2CCc3n[nH]c(-c4cccs4)c3CC2)[nH]n1` [QHL19]: in experiment [1], the “Enzyme Active” value was 4, the Targets active is 6, the “Enzyme Active %” value was 9.5% and the “Targets Active %” value was 7.9%. Further, the IC50 on IRAP [2] is 2.95 µM. Moreover, on IRAP [3], the IC50 worked out at 2.82 µM and the LipE is 1.83. Also, the IC50 at IRAP [4] is 16.2 µM. Moreover, the shift in melting temperature (ΔTm) at 30 µM on IRAP [5] was determined as 0.3 °C.
On to `CC(C)[C@@H](CS(=O)(=O)N(C)Cc1sc2ccccc2c1Cl)C(=O)NO` [QHL20], for which, in experiment [1], the “Enzyme Active” value was 1, the Targets active is recorded as 3, the “Enzyme Active %” value is 1.9% and the “Targets Active %” value is given as 2.9%. Moreover, on IRAP [2], the IC50 was 3.16 µM. In addition, at IRAP [3], the IC50 stood at 2.82 µM and the LipE is given as 2.71. The IC50 on IRAP [4] is 5.75 µM. Moreover, at IRAP [5], the shift in melting temperature (ΔTm) at 30 µM is 4.15 °C.
Consider `O=C(Cc1cc(N2CCCCC2)nc(-c2cccc(F)c2)n1)NO` [QHL21], for which, in experiment [1], the “Enzyme Active” value was 6, the Targets active is on record as 9, the “Enzyme Active %” value is listed as 6.9% and the “Targets Active %” value is on record as 6.3%. The IC50 at IRAP [2] is 2.82 µM. In addition, on IRAP [3], the IC50 was determined as 2.95 µM and the LipE is given as 2.57. The IC50 on IRAP [4] was 5.62 µM. On IRAP [5], the ΔTm at 30 µM stood at 2.66 °C.
As to `CC(C)CC(C(=O)NO)S(=O)(=O)N1CCN(c2ccc(F)cc2)CC1` (stereo not drawn) [QHL24], in experiment [1], the “Enzyme Active” value is reported as 2, the Targets active is 2, the “Enzyme Active %” value was 5.4% and the “Targets Active %” value is reported as 3.5%. At IRAP [2], the IC50 is 5.5 µM. Further, at IRAP [3], the IC50 is 3.09 µM and the LipE is reported as 3.57. Further, at IRAP [4], the IC50 was 3.02 µM. Besides, the ΔTm at 30 µM on IRAP [5] is 4 °C.
`CC(C)n1cc(C(=O)N2CCc3n[nH]c(-c4cccc(F)c4)c3CC2)cn1` [QHL25]: in experiment [1], the “Enzyme Active” value is on record as 2, the Targets active is recorded as 2, the “Enzyme Active %” value was 4.8% and the “Targets Active %” value was 2.6%. The IC50 at IRAP [2] was 3.47 µM. In addition, on IRAP [3], the IC50 was 3.16 µM and the LipE is 2.30. Besides, at IRAP [4], the IC50 was over 20 µM. For the same compound, on IRAP [5], the ΔTm at 30 µM was found to be 0 °C.
In the case of `O=C(C1CCCCC1)N1CCC[C@@H]1c1cc(-c2cccnc2)on1` [QHL27], in experiment [1], the “Enzyme Active” value is on record as 4, the Targets active is 5, the “Enzyme Active %” value is listed as 5.0% and the “Targets Active %” value is given as 3.4%. The IC50 at IRAP [2] was 5.13 µM. Besides, at IRAP [3], the IC50 is 3.24 µM and the LipE was 2.14. The IC50 on IRAP [4] is 10.7 µM. Besides, the thermal shift (ΔTm) at 30 µM on IRAP [5] is 1.48 °C.
